The test system of experiment [1] is Pseudomonas aeruginosa. The experiment in a line: Measurement of the minimum inhibitory concentration (micro broth dilution method). Type of experiment: cell-based. To be noted: allicin alone, preliminary experiment, FIG. 1. On the procedure: (§1) The allicin is diluted to 7.5 mg/mL, 3.75 mg/mL, 0.375 mg/mL, 0.0375 mg/mL, 0.00375 mg/mL and 0.000375 mg/mL respectively, and the phage is diluted to 3×10^4 pfu/mL, 3×10^3 pfu/mL, 3×10^2 pfu/ml, and 3×10^1 pfu/ml respectively, and the host bacteria are diluted to 3×10^5 cfu/mL; allicin, phage, and host bacteria are aspirated 50 μL each and added into each well of the 96-well plate, then the OD600 value is measured, the OD600 value is measured again after overnight shaker incubation at 37° C. and 220 rpm, and the absorbance change value is calculated to determine the inhibition effect on the bacteria.
After the experiment, the experimental results are shown in FIG. 2, and the MIC of phage is 1×10^3 pfu/mL.
(Dilution methods test growth across graded concentrations, often in twofold steps.)

Experiment [2] has as its system Pseudomonas aeruginosa. The experiment in a line: Bacteriostasis effect of phage in combination with allicin (combination experiment, OD600, FIC index). Type of experiment: cell-based. Here is the method: as §1
In the combination experiment, the bacteriostatic effect of allicin in different concentrations (i.e. allicin alone) is calculated and analyzed when the phage concentration is 0 pfu/mL.
In the combination experiment, the bacteriostatic effect of phages with different concentrations (that is, phages alone) is calculated and analyzed when the concentration of allicin is 0 μg/mL.
Different concentrations of allicin and phage are mixed in a 96-well plate by broth dilution method, and the OD600 value is measured. After overnight shaking table culture at 37° C. and 220 rpm, the OD600 value is measured again, and the chart is drawn.
Judging the combination effect according to the fractional inhibitory concentration (FIC) index^[6]: FIC=MIC (in combination with group A)/MIC (group A used alone)+MIC (in combination with group B)/MIC (group B used alone).
FIC index interpretation criteria: when the FIC index is less than 0.5, the two drugs are synergistic; when the FIC index is 0.5-1, the two drugs are mutually additive; when the FIC index is greater than 1 and less than 2, the two drugs are unrelated; when the FIC index is greater than 2, the two drugs are antagonistic.

The subject of experiment [3] is Pseudomonas aeruginosa phage vB_PaeP_GZMU_A1002. The experiment in a line: Effect of allicin on phage potency. The note with it: incubated 37° C. 3 h, paired sample T test, 0.05 level, FIG. 3. Here is the method:
The solution of Pseudomonas aeruginosa phage vB_PaeP_GZMU_A1002 is diluted to a certain extent, and 100 μL of the diluted phage is mixed with 100 μL of the host bacteria and incubated at 37° C. for 15 min. The incubation solution is mixed with 0.7% semisolid LB agar, spread evenly on top of 1.5% solid LB agar spread on a Petri dish in advance, and cultured in a constant temperature incubator at 37° C. for 8 h or overnight. After the culture, a number of light-transmitting plaques may be seen in the Petri dish. A number of light-transmissive phage spots are visible in the petri dish after incubation, and the optimal view is selected to have 30-300 phage spots in the field of view, and the potency is calculated as potency=(10×number of phage spots)/dilution.
The Pseudomonas aeruginosa phage vB_PaeP_GZMU_A1002 is diluted to 10-8, and 100 μL of phage is mixed with 100 μL of allicin. At the same time, 100 μL of phage is mixed with 100 μL of LB as the control group, which is repeated in parallel for three times, mixed and incubated at 37° C. for 3 h, and then the potency is measured.
In this embodiment, paired sample T test is used to determine whether allicin has an effect on phage titer.

Experiment [4] concerns Pseudomonas aeruginosa host bacteria. Put plainly: Drug resistance of host bacteria. It counts as cell-based.

In brackets after ≈: the same amount, converted by molar mass.

In the case of `C=CCS[S+]([O-])CC=C` (centres unmarked) [allicin], the MIC in the experiment on Pseudomonas aeruginosa [1] is 1250 µg/mL (≈ 7.7 mM); with Pseudomonas aeruginosa [2] (Pseudomonas aeruginosa, combination experiment, phage concentration 0 pfu/mL, FIG. 4, read-out: MIC of allicin alone), 1250 µg/mL. Further, the OD600 entry in the experiment with Pseudomonas aeruginosa [2] (allicin alone 1.25 mg/mL, FIG. 4) is reported as “about 0”. In the experiment with Pseudomonas aeruginosa [2] (allicin with phage), the “decrease of amount when used in combination as compared to singly” value is “three orders of magnitude”. For the same compound, the “best combination dosage, allicin” value in the experiment with Pseudomonas aeruginosa [2] (in combination with 1×10^2 pfu/mL phage, FIG. 6) amounted to 1.25 µg/mL. Also, the “optimal concentration for combination, allicin” value in the experiment with Pseudomonas aeruginosa [2] (with 1×10^2 pfu/mL phage, FIG. 6) is on record as 1/1000. Further, the “effect of allicin on phage potency (titer)” value in experiment [3] is listed as “no negative effect”.

Regarding `NCC[C@H](O)C(=O)N[C@@H]1C[C@H](N)[C@@H](O[C@H]2O[C@H](CN)[C@@H](O)[C@H](O)[C@H]2O)[C@H](O)[C@H]1O[C@H]1O[C@H](CO)[C@@H](O)[C@H](N)[C@H]1O` [Amikacin], the “Drug resistance of host bacteria” value in experiment [4] (strain P. aeruginosa′-5) is on record as “Resistant”.

Consider `CO/N=C(\C(=O)N[C@@H]1C(=O)N2C(C(=O)[O-])=C(C[N+]3(C)CCCC3)CS[C@H]12)c1csc(N)n1` [Cefepime], for which the “Drug resistance of host bacteria” value in experiment [4] (strain B- P. aeruginosa-029), in experiment [4] (strain P. aeruginosa-2 (r74)), in experiment [4] (strain P. aeruginosa-24), in experiment [4] (strain P. aeruginosa-30) and in experiment [4] (strain P. aeruginosa′-5) was “Resistant” each time.

With `C[C@H]1[C@H](NC(=O)/C(=N\OC(C)(C)C(=O)O)c2csc(N)n2)C(=O)N1S(=O)(=O)O` [Aztreonam], the “Drug resistance of host bacteria” value in experiment [4] (strain B- P. aeruginosa-029), in experiment [4] (strain B- P. aeruginosa-037), in experiment [4] (strain P. aeruginosa-2 (r74)), in experiment [4] (strain P. aeruginosa-4), in experiment [4] (strain P. aeruginosa-13) and in experiment [4] (strain P. aeruginosa-14) was “Resistant” each time. The “Drug resistance of host bacteria” value in experiment [4] (strain P. aeruginosa-22), in experiment [4] (strain P. aeruginosa-25), in experiment [4] (strain P. aeruginosa-26), in experiment [4] (strain P. aeruginosa-27), in experiment [4] (strain P. aeruginosa-30) and in experiment [4] (strain P. aeruginosa′-3) was “Resistant” each time. Further, the “Drug resistance of host bacteria” value in experiment [4] (strain P. aeruginosa′-4), in experiment [4] (strain P. aeruginosa′-5) and in experiment [4] (strain P. aeruginosa′-10) was “Resistant” in each case.

With `O=C(O)c1cn(C2CC2)c2cc(N3CCNCC3)c(F)cc2c1=O` [Ciprofloxacin], the “Drug resistance of host bacteria” value in experiment [4] (strain B- P. aeruginosa-029), in experiment [4] (strain B- P. aeruginosa-035), in experiment [4] (strain B- P. aeruginosa-037), in experiment [4] (strain B- P. aeruginosa-041), in experiment [4] (strain B- P. aeruginosa-042) and in experiment [4] (strain B-P. AERUGINOSA-027) was “Resistant” in each case. In addition, the “Drug resistance of host bacteria” value in experiment [4] (strain P. aeruginosa-25) and in experiment [4] (strain P. aeruginosa-29) was “Resistant” each time.

For the compound `NC[C@H]1O[C@H](O[C@H]2[C@H](O)[C@@H](O[C@H]3O[C@H](CO)[C@@H](O)[C@H](N)[C@H]3O)[C@H](N)C[C@@H]2N)[C@H](N)C[C@@H]1O` [Tobramycin], the “Drug resistance of host bacteria” value in experiment [4] (strain P. aeruginosa-29) is given as “Resistant”.

Take Piperacillin/Tazobactam: the “Drug resistance of host bacteria” value in experiment [4] (strain B- P. aeruginosa-029), in experiment [4] (strain B- P. aeruginosa-037), in experiment [4] (strain P. aeruginosa-2 (r74)), in experiment [4] (strain P. aeruginosa-14), in experiment [4] (strain P. aeruginosa-23) and in experiment [4] (strain P. aeruginosa-26) was “Resistant” each time. Besides, the “Drug resistance of host bacteria” value in experiment [4] (strain P. aeruginosa-30), in experiment [4] (strain P. aeruginosa-32), in experiment [4] (strain P. aeruginosa′-3), in experiment [4] (strain P. aeruginosa′-4), in experiment [4] (strain P. aeruginosa′-5) and in experiment [4] (strain P. aeruginosa′-6) was “Resistant” throughout. The “Drug resistance of host bacteria” value in experiment [4] (strain P. aeruginosa′-15) is given as “Resistant”.
